Source: patent US20220241276A1, “COMPOSITIONS AND METHODS FOR TREATING CANCER” (The Regents of the University of Michigan, priority 2019, published 2022)
Several values for one entry are separate records, joined by “and”; a condition that tells them apart may be missing. Equal values may be shown once. Read-outs that look alike come from different tables or passages of the source.

Experiments:
[1] = test system: adrenocortical carcinoma (ACC); conditions: cited from earlier work
[2] = test system: advanced adrenocortical carcinoma (ACC); test: Phase 3 study (GALACCTIC; Fassnacht et al. Lancet Oncology 2015) of OSI-906/linsitinib vs placebo in patients with advanced adrenocortical carcinoma; format: in vivo, human; conditions: prior trial, 6/90 patients, unselected
Source text: In some embodiments, the agent is an IGF1R inhibitor.
This includes 4 patients who achieved a partial response (PR) by RECIST criteria (Eisenhauer et al. Eur J. Cancer. 2009), and 2 patients who achieved long-term stable disease (SD; also by RECIST criteria, Eisenhauer et al. Eur J. Cancer. 2009).

[3] = test system: advanced adrenocortical carcinoma (ACC); conditions: cited from earlier work
[4] = individual patients G-L, non-responders to OSI-906, per patient

Compound: Clc1ccc(C(c2ccccc2Cl)C(Cl)Cl)cc1 (centres unmarked) [mitotane]
- Patients who recur during adjuvant therapy after surgery or progress during therapy for non-resectable disease ([1]; mitotane therapy): up to 90%
- Efficacy ([1]; recent studies): only marginally effective
- Toxicity ([1]; recent studies): highly toxic

Compound: C[C@]1(O)C[C@@H](c2nc(-c3ccc4ccc(-c5ccccc5)nc4c3)c3c(N)nccn32)C1 [OSI-906, linsitinib]
- Response rate [2]: 6.7%
- Patients with favorable response / treated patients ([3]; OSI-906-treated arm, unselected advanced ACC): 6/90
- Kaplan-Meier progression-free survival curves, linsitinib-treated vs placebo-treated ([3]; all patients of the trial): no statistical difference
- Progression-free survival (days) ([3]; individual patients A-F, responders to OSI-906, per patient, '+' given after value): 169+ days and 504+ days and 525+ days and 205+ days and 433+ days and 440+ days
- Best change from baseline in sum of target lesions (%) ([3]; individual patients A-F, responders to OSI-906, per patient): −50% and −45.625% and −45% and −5.882% and 0% and −78.46%
- Best change from baseline in sum of target lesions (%) [3, 4]: 32.26% and 35.29% and 38.28% and 48.35% and 23.51%
- Progression-free survival [3, 4]: 38 days and 41 days and 42 days (3×) and 48 days
- Number of patients who achieved a partial response (PR) ([3]; of 90 OSI-906-treated patients, RECIST): 4 patients
- Drug toxicities ([3]; patients with ACC): limited and manageable
- Primary endpoint of the Phase 3 study ([3]; patients with ACC): failed to reach the primary endpoint
- Progression-free survival of long-term durable responders ([3]; small subset of linsitinib-treated patients, not seen with placebo): > 150 days
